Assay results published in ChEMBL document CHEMBL3044875, “Synthesis and antimicrobial activity of some bisoctahydroxanthene-1,8-dione derivatives” (2011).
Active and inactive are the calls of the source. The rule behind the calls is not given here.

Tests used:
Bacillus cereus [1] = test: Antibacterial activity against Bacillus cereus NRRL 3711 at 20 ug/disk after 24 hr by disk diffusion method; type: functional
Staphylococcus aureus [2] = test: Antibacterial activity against Staphylococcus aureus ATCC 25923 at 40 ug/disc after 24 hr by disk diffusion method; type: functional
Escherichia coli [3] = test: Antibacterial activity against Escherichia coli ATCC 25922 at 20 ug/disk after 24 hr by disk-diffusion method; type: functional
Aspergillus niger [4] = test: Antifungal activity against Aspergillus niger ATCC 10949 at 140 ug/disk after 72 hr by disk diffusion method; type: functional
Candida albicans [5] = test: Antifungal activity against Candida albicans ATCC 10231 at 40 ug/disk after 48 hr by disk-diffusion method; type: functional; details: ATCC 10231, 48 h, read-out: DIZ
Escherichia coli [6] = test: Antibacterial activity against Escherichia coli ATCC 25922 at 40 ug/disk after 24 hr by disk-diffusion method; type: functional; details: for zone of inhibition at 40 µg/disc: ATCC 25922, 24 h, read-out: DIZ
[7] = system: Staphylococcus epidermidis; test: Antibacterial activity against Staphylococcus epidermidis ATCC 12228 at 140 ug/disk after 24 hr by disk diffusion method; type: functional
Proteus vulgaris [8] = test: Antibacterial activity against Proteus vulgaris NRRL-B-123 at 140 ug/disk after 24 hr by disk diffusion method; type: functional, organism-based
Staphylococcus aureus [9] = test: Antibacterial activity against Staphylococcus aureus ATCC 25923 at 20 ug/disc after 24 hr by disk diffusion method; type: functional
Pseudomonas aeruginosa [10] = test: Antibacterial activity against Pseudomonas aeruginosa ATCC 27853 at 40 ug/disk after 24 hr by disk-diffusion method; type: functional, organism-based
Candida albicans [11] = test: Antifungal activity against Candida albicans ATCC 10231 at 20 ug/disk after 48 hr by disk-diffusion method; type: functional
Nocardia [12] = test: Antibacterial activity against Nocardia canis at 20 ug/disk after 24 hr by disk diffusion method; type: functional, organism-based
Pseudomonas aeruginosa [13] = test: Antibacterial activity against Pseudomonas aeruginosa ATCC 27853 at 140 ug/disk after 24 hr by disk-diffusion method; type: functional, organism-based
Aspergillus niger [14] = test: Antifungal activity against Aspergillus niger ATCC 10949 at 20 ug/disk after 72 hr by disk diffusion method; type: functional, organism-based
Rhodotorula mucilaginosa [15] = test: Antifungal activity against Rhodotorula mucilaginosa at 140 ug/disk after 48 hr by disk diffusion method; type: functional; details: read-out: DIZ
[16] = system: Staphylococcus epidermidis; test: Antibacterial activity against Staphylococcus epidermidis ATCC 12228 at 40 ug/disk after 24 hr by disk diffusion method; type: functional
[17] = system: Staphylococcus epidermidis; test: Antibacterial activity against Staphylococcus epidermidis ATCC 12228 at 20 ug/disk after 24 hr by disk diffusion method; type: functional, organism-based
Proteus vulgaris [18] = test: Antibacterial activity against Proteus vulgaris NRRL-B-123 at 20 ug/disk after 24 hr by disk diffusion method; type: functional, organism-based
Candida albicans [19] = test: Antifungal activity against Candida albicans ATCC 10231 at 140 ug/disk after 48 hr by disk-diffusion method; type: functional; details: ATCC 10231, 48 h, read-out: DIZ
Proteus vulgaris [20] = test: Antibacterial activity against Proteus vulgaris NRRL-B-123 at 40 ug/disk after 24 hr by disk diffusion method; type: functional, organism-based
Nocardia [21] = test: Antibacterial activity against Nocardia canis at 40 ug/disk after 24 hr by disk diffusion method; type: functional
Nocardia [22] = test: Antibacterial activity against Nocardia canis at 140 ug/disk after 24 hr by disk diffusion method; type: functional
Staphylococcus aureus [23] = test: Antibacterial activity against Staphylococcus aureus ATCC 25923 at 140 ug/disc after 24 hr by disk diffusion method; type: functional
Bacillus cereus [24] = test: Antibacterial activity against Bacillus cereus NRRL 3711 at 40 ug/disk after 24 hr by disk diffusion method; type: functional
Pseudomonas aeruginosa [25] = test: Antibacterial activity against Pseudomonas aeruginosa ATCC 27853 at 20 ug/disk after 24 hr by disk-diffusion method; type: functional, organism-based
Rhodotorula mucilaginosa [26] = test: Antifungal activity against Rhodotorula mucilaginosa at 40 ug/disk after 48 hr by disk diffusion method; type: functional
Aspergillus niger [27] = test: Antifungal activity against Aspergillus niger ATCC 10949 at 40 ug/disk after 72 hr by disk diffusion method; type: functional, organism-based
Escherichia coli [28] = test: Antibacterial activity against Escherichia coli ATCC 25922 at 140 ug/disk after 24 hr by disk-diffusion method; type: functional; details: for zone of inhibition at 140 µg/disc: ATCC 25922, 24 h, read-out: DIZ
Rhodotorula mucilaginosa [29] = test: Antifungal activity against Rhodotorula mucilaginosa at 20 ug/disk after 48 hr by disk diffusion method; type: functional
Bacillus cereus [30] = test: Antibacterial activity against Bacillus cereus NRRL 3711 at 140 ug/disk after 24 hr by disk diffusion method; type: functional; details: NRRL 3711, 24 h, read-out: DIZ
[31] = ATCC 25923, 24 h, read-out: DIZ
[32] = ATCC 12228, 24 h, read-out: DIZ

| Structure (SMILES) | diameter of the inhibition zone (DIZ) (Bacillus cereus [1]) | diameter of the inhibition zone (DIZ) (Staphylococcus aureus [2]) | diameter of the inhibition zone (DIZ) (Escherichia coli [3]) | diameter of the inhibition zone (DIZ) (Aspergillus niger [4]) | zone of inhibition at 40 µg/disc (Candida albicans [5]) [mm] | zone of inhibition at 40 µg/disc (Escherichia coli [6]) [mm] | diameter of the inhibition zone (DIZ) [7] | diameter of the inhibition zone (DIZ) (Proteus vulgaris [8]) | diameter of the inhibition zone (DIZ) (Pseudomonas aeruginosa [10]) | diameter of the inhibition zone (DIZ) (Nocardia [12]) | diameter of the inhibition zone (DIZ) (Pseudomonas aeruginosa [13]) | diameter of the inhibition zone (DIZ) (Aspergillus niger [14]) | zone of inhibition at 140 µg/disc (Rhodotorula mucilaginosa [15]) [mm] | diameter of the inhibition zone (DIZ) [17] | diameter of the inhibition zone (DIZ) (Proteus vulgaris [18]) | zone of inhibition at 140 µg/disc (Candida albicans [19]) [mm] | diameter of the inhibition zone (DIZ) (Proteus vulgaris [20]) | diameter of the inhibition zone (DIZ) (Pseudomonas aeruginosa [25]) | diameter of the inhibition zone (DIZ) (Aspergillus niger [27]) | zone of inhibition at 140 µg/disc (Bacillus cereus [30]) [mm] | also measured |
| --- | --- | --- | --- | --- | --- | --- | --- | --- | --- | --- | --- | --- | --- | --- | --- | --- | --- | --- | --- | --- | --- |
| CC1(C)CC(=O)C2=C(C1)OC1=C(C(=O)CC(C)(C)C1)C2c1cccc(C2C3=C(CC(C)(C)CC3=O)OC3=C2C(=O)CC(C)(C)C3)c1 | inactive | inactive | inactive | inactive | 7 | 7 | inactive | inactive | inactive | inactive | inactive | inactive | 7 | inactive | inactive | 7 | inactive | inactive | inactive | 7 | diameter of the inhibition zone (DIZ) (Staphylococcus aureus [9]): inactive; diameter of the inhibition zone (DIZ) (Candida albicans [11]): inactive; diameter of the inhibition zone (DIZ) [16]: inactive; diameter of the inhibition zone (DIZ) (Nocardia [21]): inactive; diameter of the inhibition zone (DIZ) (Nocardia [22]): inactive; diameter of the inhibition zone (DIZ) (Staphylococcus aureus [23]): inactive; diameter of the inhibition zone (DIZ) (Bacillus cereus [24]): inactive; diameter of the inhibition zone (DIZ) (Rhodotorula mucilaginosa [26]): inactive; zone of inhibition at 140 µg/disc (Escherichia coli [28]): 8 mm; diameter of the inhibition zone (DIZ) (Rhodotorula mucilaginosa [29]): inactive |
| CC1(C)CCC2=C(C1=O)C(c1cccc(C3C4=C(CCC(C)(C)C4=O)OC4=C3C(=O)C(C)(C)CC4)c1)C1=C(CCC(C)(C)C1=O)O2 | – | – | – | – | 9 | 8 | – | inactive | inactive | inactive | inactive | inactive | 12 | inactive | inactive | 9 | inactive | inactive | inactive | 9 | zone of inhibition at 20 µg/disc (Bacillus cereus [1]; NRRL 3711, 24 h, read-out: DIZ): 8 mm; zone of inhibition at 40 µg/disc (Staphylococcus aureus [2]; [31]): 10 mm; zone of inhibition at 20 µg/disc (Escherichia coli [3]; ATCC 25922, 24 h, read-out: DIZ): 7 mm; zone of inhibition at 140 µg/disc (Aspergillus niger [4]; ATCC 10949, 72 h, read-out: DIZ): 7 mm; zone of inhibition at 140 µg/disc [7, 32]: 10 mm; zone of inhibition at 20 µg/disc (Staphylococcus aureus [9]; [31]): 8 mm; zone of inhibition at 20 µg/disc (Candida albicans [11]; ATCC 10231, 48 h, read-out: DIZ): 8 mm; zone of inhibition at 40 µg/disc [16, 32]: 8 mm; zone of inhibition at 40 µg/disc (Nocardia [21]; read-out: DIZ): 7 mm; zone of inhibition at 140 µg/disc (Nocardia [22]; read-out: DIZ): 8 mm; zone of inhibition at 140 µg/disc (Staphylococcus aureus [23]; [31]): 15 mm; zone of inhibition at 40 µg/disc (Bacillus cereus [24]; NRRL 3711, 24 h, read-out: DIZ): 9 mm; zone of inhibition at 40 µg/disc (Rhodotorula mucilaginosa [26]; read-out: DIZ): 9 mm; zone of inhibition at 140 µg/disc (Escherichia coli [28]): 9 mm; zone of inhibition at 20 µg/disc (Rhodotorula mucilaginosa [29]; read-out: DIZ): 8 mm |
| CC1(C)CC(=O)C2=C(C1)OC1=C(C(=O)CC(C)(C)C1)C2c1ccc(C2C3=C(CC(C)(C)CC3=O)OC3=C2C(=O)CC(C)(C)C3)cc1 | inactive | inactive | inactive | inactive | 9 | – | inactive | inactive | inactive | inactive | inactive | inactive | 9 | inactive | inactive | 9 | inactive | inactive | inactive | 7 | diameter of the inhibition zone (DIZ) (Escherichia coli [6]): inactive; diameter of the inhibition zone (DIZ) (Staphylococcus aureus [9]): inactive; diameter of the inhibition zone (DIZ) (Candida albicans [11]): inactive; diameter of the inhibition zone (DIZ) [16]: inactive; diameter of the inhibition zone (DIZ) (Nocardia [21]): inactive; diameter of the inhibition zone (DIZ) (Nocardia [22]): inactive; diameter of the inhibition zone (DIZ) (Staphylococcus aureus [23]): inactive; diameter of the inhibition zone (DIZ) (Bacillus cereus [24]): inactive; diameter of the inhibition zone (DIZ) (Rhodotorula mucilaginosa [26]): inactive; diameter of the inhibition zone (DIZ) (Escherichia coli [28]): inactive; diameter of the inhibition zone (DIZ) (Rhodotorula mucilaginosa [29]): inactive |
